One series relates to Hepatocyte. Kind of series: Hepatoprotective activity against tert-butyl hydroperoxide-induced oxidative stress in Wistar rat hepatocytes assessed as cell viability at 60 ug/ml by tryphan blue exclusion method (reference value: 74%). It counts as functional. The following applies: for viability at 60 µg/mL: read-out: Activity.
Series [1] can be described thus: Antioxidant activity assessed as reactive oxygen species scavenging activity. It counts as physicochemical.

The values below come from ChEMBL document CHEMBL3745595, “Flavoalkaloids and Flavonoids from Astragalus monspessulanus” (J Nat Prod, 2015).

Take `C[C@@H]1O[C@@H](OC[C@H]2O[C@@H](Oc3c(-c4ccc(O)c(O)c4)oc4cc(O)cc(O)c4c3=O)[C@H](O)[C@@H](O)[C@@H]2O)[C@H](O)[C@H](O)[C@H]1O` [RUTIN]: the viability at 60 µg/mL with Hepatocyte amounted to 168%. For the same compound, the outcome in series [1] was Active.

Turning to `C[C@@H]1O[C@@H](OC[C@H]2O[C@@H](Oc3c(-c4ccc(O)cc4)oc4cc(O[C@@H]5O[C@H](CO)[C@@H](O)[C@H](O)[C@H]5O)cc(O)c4c3=O)[C@H](O[C@@H]3O[C@@H](C)[C@H](O)[C@@H](O)[C@H]3O)[C@@H](O)[C@H]2O)[C@H](O)[C@H](O)[C@H]1O`, the viability at 60 µg/mL in the series on Hepatocyte amounted to 164%. In addition, the outcome in series [1] was Active. In the case of `C[C@@H]1O[C@@H](OC[C@H]2O[C@@H](Oc3c(-c4ccc(O)cc4)oc4c(CN5CCCC(O)C5=O)c(O)cc(O)c4c3=O)[C@H](O[C@@H]3O[C@@H](C)[C@H](O)[C@@H](O)[C@H]3O)[C@@H](O)[C@H]2O)[C@H](O)[C@H](O)[C@H]1O` (stereo partly specified), the viability at 60 µg/mL in the series with Hepatocyte came out at 177%. In series [1], the outcome was Active. Turning to SILYMARIN [listing 1 of 2 here], in the series with Hepatocyte, the Activity is 182%. For SILYMARIN [listing 2 of 2 here], in series [1], the outcome was Active. With `C[C@@H]1O[C@@H](OC[C@H]2O[C@@H](Oc3c(-c4ccc(O)c(O)c4)oc4cc(O[C@@H]5O[C@H](CO)[C@@H](O)[C@H](O)[C@H]5O)cc(O)c4c3=O)[C@H](O[C@@H]3O[C@@H](C)[C@H](O)[C@@H](O)[C@H]3O)[C@@H](O)[C@H]2O)[C@H](O)[C@H](O)[C@H]1O`, the viability at 60 µg/mL with Hepatocyte was 186%. For the same compound, in series [1], the result was Active. As to `C[C@@H]1O[C@@H](OC[C@H]2O[C@@H](Oc3c(-c4ccc(O)c(O)c4)oc4cc(O)cc(O)c4c3=O)[C@H](O[C@@H]3O[C@@H](C)[C@H](O)[C@@H](O)[C@H]3O)[C@@H](O)[C@H]2O)[C@H](O)[C@H](O)[C@H]1O`, the viability at 60 µg/mL in the series on Hepatocyte stood at 195%. For the same compound, the result in series [1] was Active. For `C[C@@H]1O[C@@H](OC[C@H]2O[C@@H](Oc3c(-c4ccc(O)c(O)c4)oc4cc(O)cc(O)c4c3=O)[C@H](O)[C@@H](O)[C@H]2O)[C@H](O)[C@H](O)[C@H]1O`, the viability at 60 µg/mL in the series on Hepatocyte is 159%. Also, the outcome in series [1] was Active. For `O=c1c(O[C@@H]2O[C@H](CO)[C@H](O)[C@H](O)[C@H]2O)c(-c2ccc(O)cc2)oc2cc(O)cc(O)c12` [TRIFOLIN], the viability at 60 µg/mL in the series on Hepatocyte stood at 191%. In series [1], the outcome was Active. Take `C[C@@H]1O[C@@H](OC[C@H]2O[C@@H](Oc3c(-c4ccc(O)c(O)c4)oc4c(CN5CCCC(O)C5=O)c(O)cc(O)c4c3=O)[C@H](O[C@@H]3O[C@@H](C)[C@H](O)[C@@H](O)[C@H]3O)[C@@H](O)[C@H]2O)[C@H](O)[C@H](O)[C@H]1O` (stereo partly specified): in the series on Hepatocyte, the viability at 60 µg/mL is 159%. Besides, in series [1], the outcome was Active. As to `C[C@@H]1O[C@@H](OC[C@H]2O[C@@H](Oc3c(-c4ccc(O)cc4)oc4cc(O)cc(O)c4c3=O)[C@H](O[C@@H]3O[C@@H](C)[C@H](O)[C@@H](O)[C@H]3O)[C@@H](O)[C@H]2O)[C@H](O)[C@H](O)[C@H]1O`, the viability at 60 µg/mL in the series with Hepatocyte stood at 168%. Also, in series [1], the outcome was Active.

As for `O=c1cc(-c2ccc(O)cc2)oc2cc(O[C@@H]3O[C@H](CO)[C@@H](O)[C@H](O)[C@H]3O)cc(O)c12` [APIGETRIN], the viability at 60 µg/mL in the series on Hepatocyte is 177%. The outcome in series [1] was Active. `C[C@@H]1O[C@@H](O[C@H]2[C@H](Oc3c(-c4ccc(O)c(O)c4)oc4cc(O)cc(O)c4c3=O)O[C@H](COC(=O)CC(C)(O)CC(=O)O)[C@H](O)[C@@H]2O)[C@H](O)[C@H](O)[C@H]1O` (stereo partly specified): the viability at 60 µg/mL in the series on Hepatocyte amounted to 182%. Besides, the result in series [1] was Active. Taken in the same sequence, the figures for `C[C@@H]1O[C@@H](O[C@H]2[C@H](Oc3c(-c4ccc(O)cc4)oc4cc(O)cc(O)c4c3=O)O[C@H](COC(=O)CC(C)(O)CC(=O)O)[C@H](O)[C@@H]2O)[C@H](O)[C@H](O)[C@H]1O` (stereo partly specified) were 155% and “Active”.
